{
  "source": "ChEMBL document CHEMBL1201862",
  "about": "“PubChem BioAssay data set” (2004)",
  "key": {"Vasopressin V1a receptor": {"target": "Vasopressin V1a receptor (Homo sapiens, UniProt P37288)", "sequence (P37288 whole entry)": "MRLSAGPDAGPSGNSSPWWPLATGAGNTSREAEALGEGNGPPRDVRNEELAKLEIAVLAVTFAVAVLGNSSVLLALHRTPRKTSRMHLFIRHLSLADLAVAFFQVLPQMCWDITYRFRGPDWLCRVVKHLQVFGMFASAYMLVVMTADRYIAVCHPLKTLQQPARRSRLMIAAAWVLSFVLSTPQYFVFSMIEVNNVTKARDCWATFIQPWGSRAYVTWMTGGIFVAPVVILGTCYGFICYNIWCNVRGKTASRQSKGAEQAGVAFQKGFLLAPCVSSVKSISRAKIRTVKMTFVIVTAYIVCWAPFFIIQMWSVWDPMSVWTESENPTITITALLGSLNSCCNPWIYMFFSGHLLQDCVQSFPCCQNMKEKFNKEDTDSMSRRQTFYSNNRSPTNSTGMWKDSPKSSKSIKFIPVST", "test": "Counterscreen for Oxytocin Receptor (OXTR) agonists: Fluorescence-based cell-based high throughput dose response assay to identify agonists of the vasopressin 1 receptor (V1R). [Related pubchem assays: 2435 (Primary screen (OXTR agonists in singlicate)), 434991 (Counterscreen (V1R agonists in triplicate)), 2482 (Summary (OXTR agonists)) …", "format": "functional"}, "Oxytocin receptor": {"target": "Oxytocin receptor (Homo sapiens, UniProt P30559)", "sequence (P30559 whole entry)": "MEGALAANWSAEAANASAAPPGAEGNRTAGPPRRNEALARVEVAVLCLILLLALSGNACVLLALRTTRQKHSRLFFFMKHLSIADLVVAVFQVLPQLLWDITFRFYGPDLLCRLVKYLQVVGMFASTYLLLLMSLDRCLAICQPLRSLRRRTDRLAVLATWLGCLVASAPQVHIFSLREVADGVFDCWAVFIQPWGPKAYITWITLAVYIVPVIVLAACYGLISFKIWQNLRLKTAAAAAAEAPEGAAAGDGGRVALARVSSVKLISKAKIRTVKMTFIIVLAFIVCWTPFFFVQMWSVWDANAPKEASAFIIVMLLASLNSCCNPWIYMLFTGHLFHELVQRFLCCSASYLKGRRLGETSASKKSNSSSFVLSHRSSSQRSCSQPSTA", "test": "Fluorescence-based cell-based high throughput dose response assay for agonists of the Oxytocin Receptor (OXTR). [Related pubchem assays: 2435 (Primary screen (OXTR agonists in singlicate)), 434991 (Counterscreen (V1R agonists in triplicate)), 2482 (Summary (OXTR agonists)), 434963 (Confirmation screen (OXTR agonists in triplicate))]", "format": "functional"}, "Vero": {"tested_on": "Vero", "test": "cells", "format": "functional", "settings": "Chlorocebus sabaeus"}, "[1]": {"target": "G2/mitotic-specific cyclin-B1 (Homo sapiens, UniProt P14635)", "sequence (P14635 whole entry)": "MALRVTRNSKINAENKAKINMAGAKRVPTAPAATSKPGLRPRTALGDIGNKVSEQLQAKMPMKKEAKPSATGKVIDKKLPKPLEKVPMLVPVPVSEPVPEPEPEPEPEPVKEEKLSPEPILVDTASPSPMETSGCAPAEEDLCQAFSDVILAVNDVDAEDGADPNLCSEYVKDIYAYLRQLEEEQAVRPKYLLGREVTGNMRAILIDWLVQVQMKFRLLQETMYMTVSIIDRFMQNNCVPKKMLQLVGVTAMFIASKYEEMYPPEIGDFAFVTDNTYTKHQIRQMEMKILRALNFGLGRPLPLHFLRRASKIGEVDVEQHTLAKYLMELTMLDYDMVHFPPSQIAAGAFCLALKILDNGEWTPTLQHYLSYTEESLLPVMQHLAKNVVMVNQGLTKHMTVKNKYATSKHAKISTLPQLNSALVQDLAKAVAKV", "test": "Counterscreen assay for inhibitors of Wee1 degradation: dose response cell-based assay to identify inhibitors of cyclin B degradation. [Related pubchem assays: 1410, 1321 ]", "format": "functional"}, "Wee1-like protein kinase": {"target": "Wee1-like protein kinase (Homo sapiens, UniProt P30291)", "sequence (P30291 whole entry)": "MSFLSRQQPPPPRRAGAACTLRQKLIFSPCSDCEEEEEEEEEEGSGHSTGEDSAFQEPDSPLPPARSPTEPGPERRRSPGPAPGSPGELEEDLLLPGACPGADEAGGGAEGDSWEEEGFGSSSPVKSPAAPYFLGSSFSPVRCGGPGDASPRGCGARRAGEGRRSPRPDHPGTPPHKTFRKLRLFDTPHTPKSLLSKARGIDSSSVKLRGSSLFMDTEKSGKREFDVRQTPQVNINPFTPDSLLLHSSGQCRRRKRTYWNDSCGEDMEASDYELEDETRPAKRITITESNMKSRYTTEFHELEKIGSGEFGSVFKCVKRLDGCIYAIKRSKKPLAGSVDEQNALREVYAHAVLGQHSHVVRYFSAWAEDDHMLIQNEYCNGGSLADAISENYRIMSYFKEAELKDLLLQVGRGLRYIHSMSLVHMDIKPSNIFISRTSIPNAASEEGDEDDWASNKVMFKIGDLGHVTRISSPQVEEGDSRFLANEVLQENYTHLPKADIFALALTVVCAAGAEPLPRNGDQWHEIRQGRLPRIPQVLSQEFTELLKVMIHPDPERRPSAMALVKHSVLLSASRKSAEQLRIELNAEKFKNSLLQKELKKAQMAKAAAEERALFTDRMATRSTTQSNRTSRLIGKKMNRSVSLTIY", "test": "Dose Response Cell-based Assay for Inhibitors of Wee1 Degradation. [Related pubchem assays: 1410, 1321 ]", "format": "functional"}, "[2]": {"test": "cytotoxicity in HEK-293T cells, dose response, cytotoxicity control for TCR NF-kB inhibitor project, luminescence, T-cell screen hits (AID 489026);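 also: cells exposed to compound about 14 hours before the viability readout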", "format": "functional, cell-based"}, "[3]": {"test": "Counterscreen for IDE inhibitors: Luminescence-based cell-based high throughput dose response assay to identify compounds that are cytotoxic to HEK cells. [Related pubchem assays: 434962 (Primary screen (IDE inhibitors in singlicate)), 449730 (Counterscreen (Cytotoxicity in triplicate)), 435028 (Confirmation (IDE inhibitors in triplicate)) …", "format": "functional", "settings": "HEK293"}, "Insulin-degrading enzyme": {"target": "T1, Insulin-degrading enzyme (Homo sapiens, UniProt P14735)", "T1 sequence (P14735 whole entry)": "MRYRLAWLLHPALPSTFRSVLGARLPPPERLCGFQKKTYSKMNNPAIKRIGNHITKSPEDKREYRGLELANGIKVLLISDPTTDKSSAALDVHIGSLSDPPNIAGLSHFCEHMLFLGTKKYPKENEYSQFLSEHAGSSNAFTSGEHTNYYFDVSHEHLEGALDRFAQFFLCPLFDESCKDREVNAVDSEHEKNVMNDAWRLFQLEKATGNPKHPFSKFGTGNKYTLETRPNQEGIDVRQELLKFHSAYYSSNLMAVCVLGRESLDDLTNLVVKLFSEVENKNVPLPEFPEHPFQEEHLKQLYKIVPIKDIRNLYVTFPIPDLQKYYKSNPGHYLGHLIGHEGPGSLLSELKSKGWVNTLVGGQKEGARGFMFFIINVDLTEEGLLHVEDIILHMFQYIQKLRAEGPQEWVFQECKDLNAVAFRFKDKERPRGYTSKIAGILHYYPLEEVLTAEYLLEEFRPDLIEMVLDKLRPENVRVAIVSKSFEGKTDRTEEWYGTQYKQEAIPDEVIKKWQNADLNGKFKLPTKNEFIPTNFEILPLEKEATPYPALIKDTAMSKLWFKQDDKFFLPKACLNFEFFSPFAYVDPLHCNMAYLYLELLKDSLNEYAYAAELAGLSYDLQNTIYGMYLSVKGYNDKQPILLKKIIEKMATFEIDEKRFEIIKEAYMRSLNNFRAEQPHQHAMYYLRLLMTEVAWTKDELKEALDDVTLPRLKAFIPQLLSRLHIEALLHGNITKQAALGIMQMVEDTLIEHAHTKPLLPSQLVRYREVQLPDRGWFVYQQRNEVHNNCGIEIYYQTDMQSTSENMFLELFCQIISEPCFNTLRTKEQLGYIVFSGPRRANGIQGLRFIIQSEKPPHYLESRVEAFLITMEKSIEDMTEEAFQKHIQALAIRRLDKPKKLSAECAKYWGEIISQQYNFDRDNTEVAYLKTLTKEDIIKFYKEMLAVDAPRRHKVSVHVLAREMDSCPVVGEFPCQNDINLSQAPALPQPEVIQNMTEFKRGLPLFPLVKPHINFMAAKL", "test": "Dose Response: Fluorescence polarization-based cell-based high throughput dose response assay for inhibitors of insulin-degrading enzyme (IDE). [Related pubchem assays: 434962 (Primary screen (IDE inhibitors in singlicate)), 449730 (Counterscreen (Cytotoxicity in triplicate)), 435028 (Confirmation (IDE inhibitors in triplicate)), 434984 (Summary …", "format": "functional"}, "[4]": {"target": "Mothers against decapentaplegic homolog 3 (Homo sapiens, UniProt P84022)", "sequence (P84022 whole entry)": "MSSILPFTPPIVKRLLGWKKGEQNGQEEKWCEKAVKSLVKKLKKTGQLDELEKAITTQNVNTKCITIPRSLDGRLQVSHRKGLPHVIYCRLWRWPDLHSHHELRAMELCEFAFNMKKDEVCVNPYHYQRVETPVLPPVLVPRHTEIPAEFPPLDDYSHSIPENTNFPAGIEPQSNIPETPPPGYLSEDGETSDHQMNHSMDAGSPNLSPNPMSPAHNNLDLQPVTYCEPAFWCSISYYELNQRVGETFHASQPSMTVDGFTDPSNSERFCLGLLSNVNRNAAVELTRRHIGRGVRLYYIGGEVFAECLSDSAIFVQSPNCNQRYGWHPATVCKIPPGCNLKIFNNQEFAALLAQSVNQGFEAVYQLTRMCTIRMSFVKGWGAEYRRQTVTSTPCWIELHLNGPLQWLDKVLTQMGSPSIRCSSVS", "test": "Smad3 binding inhibitors, lysate ELISA, dose response, cell lysate, secondary confirmation, chemiluminescent ELISA, HEK293 lysate (AID 1058)", "format": "functional"}, "[5]": {"target": "T2, Neuropeptide Y receptor type 1 (Homo sapiens, UniProt P25929)", "T2 sequence (P25929 whole entry)": "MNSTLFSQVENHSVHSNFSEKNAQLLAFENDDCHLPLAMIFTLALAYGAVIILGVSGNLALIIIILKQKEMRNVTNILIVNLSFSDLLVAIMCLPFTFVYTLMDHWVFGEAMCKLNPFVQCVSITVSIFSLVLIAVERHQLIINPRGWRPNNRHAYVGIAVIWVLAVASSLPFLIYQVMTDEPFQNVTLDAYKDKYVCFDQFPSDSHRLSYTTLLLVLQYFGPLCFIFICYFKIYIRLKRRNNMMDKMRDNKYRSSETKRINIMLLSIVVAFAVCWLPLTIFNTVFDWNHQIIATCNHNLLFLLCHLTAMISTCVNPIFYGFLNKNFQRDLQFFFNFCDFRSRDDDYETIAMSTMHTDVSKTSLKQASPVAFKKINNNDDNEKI", "format": "functional"}, "[6]": {"target": "T3, Neuropeptide Y receptor type 2 (Homo sapiens, UniProt P49146)", "T3 sequence (P49146 whole entry)": "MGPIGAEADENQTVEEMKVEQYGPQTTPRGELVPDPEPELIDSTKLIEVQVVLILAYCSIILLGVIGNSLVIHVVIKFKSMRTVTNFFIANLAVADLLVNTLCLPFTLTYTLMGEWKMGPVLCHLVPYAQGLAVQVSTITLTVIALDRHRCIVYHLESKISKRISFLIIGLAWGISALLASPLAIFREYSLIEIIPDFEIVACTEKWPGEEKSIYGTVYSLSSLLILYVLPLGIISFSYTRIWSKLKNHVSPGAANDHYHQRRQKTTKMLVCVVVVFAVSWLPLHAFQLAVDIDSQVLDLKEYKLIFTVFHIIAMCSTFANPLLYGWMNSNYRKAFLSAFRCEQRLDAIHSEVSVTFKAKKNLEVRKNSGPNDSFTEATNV", "format": "functional, cell-based"}},
  "note": "Calls of active or inactive are those of the source.",
  "data": [
    {"smiles": "Cc1ccc(NS(=O)(=O)c2ccc(C(=O)NCC(c3ccco3)N3CCCCC3)cc2)cc1", "note": "(stereo unspecified)", "values": [
      {"measurement": "EC50", "setting": "Vasopressin V1a receptor", "value": "> 29.9 µM (not active)"},
      {"measurement": "EC50", "setting": "Oxytocin receptor", "value": "> 29.9 µM (not active)"},
      {"measurement": "CC50", "setting": "Vero", "value": "> 25 µM (active)"}
    ]},
    {"smiles": "Cc1csc2sc(-c3ccnc(SCC(=O)NCc4ccccc4)n3)c(C)c12", "values": [
      {"measurement": "EC50", "setting": "[1]", "value": "> 49.7 µM (not active)"},
      {"measurement": "EC50", "setting": "Wee1-like protein kinase", "value": "> 49.7 µM (not active)"},
      {"measurement": "IC50", "setting": "[2]", "value": "> 80 µM (inactive)"}
    ]},
    {"smiles": "Cc1c(NC(=O)/C(C#N)=C/c2ccc(-c3ccc(Cl)cc3)o2)c(=O)n(-c2ccccc2)n1C", "values": [
      {"measurement": "IC50", "setting": "[3]", "value": "11.1 µM (not active)"},
      {"measurement": "IC50", "setting": "Insulin-degrading enzyme", "value": "2.7 µM (active)"}
    ]},
    {"smiles": "CN(C)c1ccc(C(c2cc3c(cc2O)OCO3)N2CCOCC2)cc1", "note": "(stereo unspecified)", "values": [
      {"measurement": "IC50", "setting": "[4]", "value": "> 40 µM (not active)"}
    ]},
    {"smiles": "O=C(N/N=C/c1ccco1)c1ccccc1OCc1ccc(Br)cc1", "values": [
      {"measurement": "IC50", "setting": "[5]", "value": "5.34 µM (active)"},
      {"measurement": "IC50", "setting": "[6]", "value": "9.08 µM (active)"}
    ]}
  ]
}
